Here are results for two compounds from patent US4937232A, “Inhibition of protein kinase C by long-chain bases” (priority 1988, dated 1990).

The test system of one assay is HL-60 cells. The assay is described as follows: Morphology and marker enzymes (ANA esterase, acid phosphatase) of HL-60 cells on day 3. Type of assay: cell-based, human. As to conditions: 3 days. From the text: Expression of most other signs of HL-60 cell differentiation requires longer time periods after treatment with PMA. For these experiments, the cells were examined on day 3 for adherence and acid phosphatase activity (Table IV) and morphology and the marker enzymes alpha-naptholacetate (ANA) esterase and acid phosphatase (Table V).

The next assay deals with human neutrophils. The assay is described as follows: Superoxide production by neutrophils (cytochrome c reduction). As to conditions: Neutrophil, approximately 5×10^5 cells/ml, all activators, read-out: concentration for 50% inhibition of superoxide production. The class given is cell-based. The method, then:
Superoxide production by cells was quantitated from superoxide-mediated reduction of cytochrome c, monitored as an increase in absorbance at 550 nm and an extinction coefficient at 21,000 M^-1 cm^-1. Measurements were carried out at 37° C. using approximately 5×10^5 neutrophils per ml, stirred continuously. The cells were allowed to equilibrate several minutes prior to the addition of effectors. Conditions for individual experiments are described in figure legends and tables. Controls utilizing added superoxide dismutase verified that the cytochrome c reduction was mediated by superoxide.

The target of another assay is T1, NADPH-oxidase (Homo sapiens, UniProt P04839).
T1 construct: endogenous in cells
The assay is described as follows: NADPH-oxidase activity in isolated neutrophil membranes. The class given is biochemical. Here is the method: Superoxide production was also measured spectrophotometrically in isolated membranes (see below) by the method of Curnutte et al (N. Eng. J. Med. 293, 628-632) also using superoxide dismutase inhibitable reduction of cytochrome c. Assays utilized paired cuvettes with the reference cuvette containing 30 μg/ml superoxide dismutase. Both cuvettes also contained 65 mM potassium phosphate pH 7.0, 125 mM sucrose, 81 μM cytochrome c, and 0.1 mg of membrane protein. The reaction was initiated with 200 μM (final) NADPH in both cuvettes. The treatments are as described in Table I. All spectrophotometric measurements were carried out using a Cary […] spectrophotometer.
Neutrophil membranes activated for superoxide production were prepared as described previously (Hohn, J. Clin. Invest. 55, 707-713, 1975). Neutrophils (10^8) were suspended in PBS-glucose and incubated in a shaking waterbath at 37° C. Cells were activated by the addition of 10 μg PMA/ml and allowed to incubate 5 min. The reaction was stopped by adding an equal volume of ice-cold PBS. The cells were centrifuged at 400×g for 4 min at 4° C. and resuspended in PBS-glucose containing 120 μM FAD. The cells were lysed by homogenization with a teflon-glass homogenizer. The homgenate was centrifuged at 250×g for 10 min. to remove unlysed cells. […]

For another assay, the system named is Y-1 tumor cell line. Description: ACTH stimulation of steroidogenesis in the Y-1 tumor cell line. As to conditions: unpublished studies. The class given is cell-based.
A further assay deals with protein kinase M. Description: Activity of the catalytic domain (protein kinase M). The class given is biochemical, rat. Here is the method: Under these conditions, the bulk concentration of PS was 260 μM and diC18:1 was 86 μM. Therefore, 50% inhibition (100 μM) occurred on a molar basis equivalent to [diC18:1 ] or to 0.4 of [PS]. The potency of sphingosine inhibition was markedly affected by the number of Triton X-100 mixed micelles containing 7 mol % PS and 1 mol % diC18:1present in the assay (FIG. 11A). Thus, the effect of sphingosine was subject to surface dilution. When the data are expressed as mol %, (sphingosine:Triton X-100), sphingosine inhibition at four different levels of Triton X-100 mixed micelles (containing PS and diC18:1) was identical (FIG. 11B) implying that it is the number of sphingosine molecules present in each mixed micelle that determines the potency and not the absolute concentration. For surface active amphipathic molecules, the expression of inhibitor potencies must be relative to the amount of surface (micelles in this case) as bulk concentrations are misleading. […] To test this hypothesis, the catalytic domain (protein kinase M) was generated by proteolysis of protein kinase C^2. The activity of this catalytic domain which is independent of Ca^2+, phospholipid and DAG/phorbol esters was not inhibited by sphingosine (FIG. 10).
^2 The catalytic domain was generated by trypsin treatment of purified protein kinase C; and purified by Ultrogel AcA-44 molecular sieve chromatography. […]

The next assay addresses protein kinase C. The assay is described as follows: Mixed micellar protein kinase C activity assay for lysosphingolipids (Table VI). The class given is biochemical. Here is the method: TABLE VI: Inhibition of protein kinase C activity and phorbol-dibutyrate binding by lysosphingolipids. […] The remaining two columns show the observed effects of the lysosphingolipids of protein kinase C activity and phorbol diester binding in vitro and in human platelets. Lysogangliosides were prepared from their parental gangliosides by hydrolysis in methanolic KOH esentially as described by Neuenhofer et al. in Bioch. 24, 525, 1985. During this preparation, with approximately 90-95% conversion, the N-acetate of N-acetylneuraminic acid is partially hydrolyzed. Fatty acids were partitioned into heptane after acidification of the methanolic reaction mixture. Galactosylsphingosine, glucosylsphingosine, and lactosylsphingosine were prepared as previously described for galactosylsphingosine (Radin, Lipids 9, 358, 1974) Sphingosylphosphorylcholine was prepared by hydrolysis in HCl-butanol (Kaller, Biochemische Zeitschrift 334, 451, 1961). The purity of the lyso derivatives (greater than 90%) was checked by thin layer chromatography (TLC) on silica gel H plates developed in chloroform/methanol/2N NH4 OH (65/35/9) and visualized by ninhydrin reaction for N-lyso compounds, by α-naphthol/sulfuric acid for both gangliosides and lysogangliosides,and by a phospholipid spray for sphingosylphosphorylcholine. Lysosphingolipids were quantitated by reaction of the amine group with trinitrobenzenesulfonate. Gangliosides and lysosphingolipids were also quantitated by reaction with anthrone. The lysosphingolipids were then studied for their effect on protein kinase C activity. Protein kinase C was purified to near homogeneity by the method of Wolf et al. (J. Biol. Chem. 260, 15718, 1985), and activity was measured using a mixed micellar assay (described herein). Lysosphingolipids were added directly in aqueous solution, and allowed to equilibrate with the Triton X-100 (0.3% w/v) mixed micelles containing 6 mol % phosphatidylserine and 2 mol % dioleoylglycerol. […] Phorbol-dibutyrate binding was measured in a mixed micellar assay. Lysosphingolipids inhibited phorbol-dibutyrate binding to protein kinase C in the presence of Triton X-100 mixed micelles containing 20 mol % phosphatidylserine. […] The difference is related to the higher concentration of phosphatidylserine used in the binding assay, as both activity and binding show a high cooperative dependence on phosphatidylserine, which modulates the inhibition by lysosphingolipids. Phorbol-dibutyrate binding to human platelets and 40 kDa phosphorylation in platelets were carried out as described above. Lysosphingolipids inhibited phorbol dibutyrate binding to human platelets at concentrations in the 10-50 μM range. Inhibition of 40 kDa phosphorylation occurred over the same concentration range.

Consider `CCCCCCCCCCCCCCC[C@@H](O)[C@@H](N)CO` (relative stereo) [Sphinganine, erythro-dihydrosphingosine], for which the Acid phosphatase in the assay with HL-60 cells (8 nM PMA, adherent cells, 1 μM sphinganine) is on record as 0.64 nmol/h/105 cells; with HL-60 cells (8 nM PMA, adherent cells, 2.5 μM sphinganine), 0.60 nmol/h/105 cells; with HL-60 cells (8 nM PMA, adherent cells, 5 μM sphinganine), 0.64 nmol/h/105 cells; in the assay with HL-60 cells (8 nM PMA, suspended cells, 1 μM sphinganine), 0.19 nmol/h/105 cells; in the assay on HL-60 cells (8 nM PMA, suspended cells, 2.5 μM sphinganine), 0.12 nmol/h/105 cells; in the assay on HL-60 cells (8 nM PMA, suspended cells, 5 μM sphinganine), 0.06 nmol/h/105 cells. Also, the Acid phosphatase with HL-60 cells (No PMA, suspended cells, 1 μM sphinganine) stood at 0.25 nmol/h/105 cells; in the assay on HL-60 cells (No PMA, suspended cells, 2.5 μM sphinganine), 0.22 nmol/h/105 cells; in the assay on HL-60 cells (No PMA, suspended cells, 5 μM sphinganine) it was 0.16 nmol/h/105 cells. Further, the IC50 with human neutrophils was roughly 1 µM. The “Cytochrome c Reduction” value on NADPH-oxidase (18 μM sphinganine, membranes from PMA-pretreated cells) worked out at 27 nmols/min/mg/protein. For the same compound, on NADPH-oxidase (concentrations which inhibited the cellular response), the “inhibition of NADPH-dependent superoxide generation in isolated membranes” value is reported as “No inhibition”. Further, in the assay on Y-1 tumor cell line, the “effect on the ACTH-stimulated steroidogenic rate” value is given as “did not affect”.

Take `CCCCCCCCCCCCC/C=C/[C@@H](O)[C@@H](N)CO` [sphingosine]: the “inhibition of the catalytic domain (protein kinase M)” value with protein kinase M was “not inhibited”. The “Inhibition of Protein Kinase C, concentration giving 50% inhibition, (mol %)” value on protein kinase C (0.3% Triton X-100, 1 mol % = 43 μM) is on record as 1.9 mol %. Moreover, the IC50 at protein kinase C (0.3% Triton X-100 mixed micelles, 6 mol % phosphatidylserine, 2 mol % dioleoylglycerol, read-out: Inhibition of Protein Kinase C, concentration giving 50% inhibition) stood at 80 µM.
